These molecules were tested against T1, KRAS G12C 1-169, his-tagged protein, GDP-loaded (Homo sapiens, UniProt P01116, G12C) (assay: Biochemical assay: covalent binding (modification %) to KRAS G12C by mass spectrometry). Details: 2 hour incubation period, 8 μM compound (compounds 21-92).
T1 construct: KRAS G12C 1-169, his-tagged protein, GDP-loaded

| Structure (SMILES) | Binding % |
| --- | --- |
| C=CC(=O)N1CC(N2Cc3ccc(-c4cc(O)cc5ccccc45)c(F)c3C2=O)C1 [Compound 67, 2-(1-acryloylazetidin-3-yl)-7-fluoro-6-(3-hydroxynaphthalen-1-yl)isoindolin-1-one] | +++ (+++ indicates binding activity greater than 50%) |
| C=CC(=O)N1CC(N2Cc3ccc(-c4cccnc4O)cc3C2=O)C1 [Compound 68, 2-(1-acryloylazetidin-3-yl)-6-(2-hydroxypyridin-3-yl)isoindolin-1-one] | + (+ indicates binding activity up to 10%) |
| C=CC(=O)N1CC(N2Cc3ccc(-c4c(C)ccc5[nH]ncc45)c(F)c3C2=O)C1 [Compound 69, 2-(1-acryloylazetidin-3-yl)-7-fluoro-6-(5-methyl-1H-indazol-4-yl)isoindolin-1-one] | ++ (++ indicates binding activity from 10 to 50%) |
| C=CC(=O)N1CC(N2Cc3cc(Cl)c(-c4cc(O)cc5ccccc45)cc3C2=O)C1 [Compound 70, 2-(1-acryloylazetidin-3-yl)-5-chloro-6-(3-hydroxynaphthalen-1-yl)isoindolin-1-one] | +++ (+++ indicates binding activity greater than 50%) |
| C=CC(=O)N1CC(N2Cc3ccc(NC4CCCN(C(C)=O)C4)cc3C2=O)C1 (centres unmarked) [Compound 71, 6-((1-acetylpiperidin-3-yl)amino)-2-(1-acryloylazetidin-3-yl)isoindolin-1-one] | + (+ indicates binding activity up to 10%) |
| C=CC(=O)N1CC(N2Cc3ccc(N4CCCC(O)C4)cc3C2=O)C1 (centres unmarked) [Compound 72, 2-(1-acryloylazetidin-3-yl)-6-(3-hydroxypiperidin-1-yl)isoindolin-1-one] | + (+ indicates binding activity up to 10%) |
| C=CC(=O)N1CC(N2Cc3ccc(-c4c(O)ccc5ccccc45)cc3C2=O)C1 [Compound 73, 2-(1-acryloylazetidin-3-yl)-6-(2-hydroxynaphthalen-1-yl)isoindolin-1-one] | ++ (++ indicates binding activity from 10 to 50%) |
| C=CC(=O)N1CC(N2Cc3cc(Cl)c(-c4c(C)ccc5[nH]ncc45)cc3C2=O)C1 [Compound 74, 2-(1-acryloylazetidin-3-yl)-5-chloro-6-(5-methyl-1H-indazol-4-yl)isoindolin-1-one] | ++ (++ indicates binding activity from 10 to 50%) |
| C=CC(=O)N1CC(N2Cc3ccc(NC4CCN(C(C)=O)C4)cc3C2=O)C1 (centres unmarked) [Compound 75, 6-((1-acetylpyrrolidin-3-yl)amino)-2-(1-acryloylazetidin-3-yl)isoindolin-1-one] | + (+ indicates binding activity up to 10%) |
| C=CC(=O)N1CC(N2Cc3ccc(C(=O)N4CCC(N(C)C)C4)cc3C2=O)C1 (centres unmarked) [Compound 76, 2-(1-acryloylazetidin-3-yl)-6-(3-(dimethylamino)pyrrolidine-1-carbonyl)isoindolin-1-one] | + (+ indicates binding activity up to 10%) |
| C=CC(=O)N1CC(N2Cc3c(C(N)=O)cc(-c4c(C)ccc5[nH]ncc45)cc3C2=O)C1 [Compound 77, 2-(1-acryloylazetidin-3-yl)-6-(5-methyl-1H-indazol-4-yl)-1-oxoisoindoline-4-carboxamide] | + (+ indicates binding activity up to 10%) |
| C=CC(=O)N1CC(N2Cc3ccc(N4CCCC(N(C)C)C4)cc3C2=O)C1 (centres unmarked) [Compound 78, 2-(1-acryloylazetidin-3-yl)-6-(3-(dimethylamino)piperidin-1-yl)isoindolin-1-one] | + (+ indicates binding activity up to 10%) |
| C=CC(=O)N1CC(N2Cc3ccc(C(=O)N4CCC(N)C4)cc3C2=O)C1 (centres unmarked) [Compound 79, 2-(1-acryloylazetidin-3-yl)-6-(3-aminopyrrolidine-1-carbonyl)isoindolin-1-one] | + (+ indicates binding activity up to 10%) |
| C=CC(=O)N1CC(N2Cc3ccc(-c4ccc(C#N)cc4)cc3C2=O)C1 [Compound 80, 4-(2-(1-acryloylazetidin-3-yl)-3-oxoisoindolin-5-yl)benzonitrile] | + (+ indicates binding activity up to 10%) |
| C=CC(=O)N1CC(N2Cc3ccc(-c4ccc(C(N)=O)cc4)cc3C2=O)C1 [Compound 81, 4-(2-(1-acryloylazetidin-3-yl)-3-oxoisoindolin-5-yl)benzamide] | + (+ indicates binding activity up to 10%) |
| C=CC(=O)N1CC(N2Cc3ccc(-c4cc(O)cc5ccccc45)nc3C2=O)C1 [Compound 82, 6-(1-acryloylazetidin-3-yl)-2-(3-hydroxynaphthalen-1-yl)-5,6-dihydro-7H-pyrrolo[3,4-b]pyridin-7-one] | + (+ indicates binding activity up to 10%) |
| C=CC(=O)N1CC(N2Cc3c(C(N)=O)cc(-c4c(O)cccc4F)cc3C2=O)C1 [Compound 83, 2-(1-acryloylazetidin-3-yl)-6-(2-fluoro-6-hydroxyphenyl)-1-oxoisoindoline-4-carboxamide] | + (+ indicates binding activity up to 10%) |
| C=CC(=O)N1CC(N2Cc3ccc(C(=O)Nc4cn[nH]c4)cc3C2=O)C1 [Compound 84, 2-(1-acryloylazetidin-3-yl)-3-oxo-N-(1H-pyrazol-4-yl)isoindoline-5-carboxamide] | + (+ indicates binding activity up to 10%) |
| C=CC(=O)N1CCC(N2Cc3c(C(N)=O)cc(-c4c(C)ccc5[nH]ncc45)cc3C2=O)C1 (centres unmarked) [Compound 85, 2-(1-acryloylpyrrolidin-3-yl)-6-(5-methyl-1H-indazol-4-yl)-1-oxoisoindoline-4-carboxamide] | + (+ indicates binding activity up to 10%) |
| C=CC(=O)N1CC(N2Cc3ccc(NC(=O)c4cn[nH]c4)cc3C2=O)C1 [Compound 86, N-(2-(1-acryloylazetidin-3-yl)-3-oxoisoindolin-5-yl)-1H-pyrazole-4-carboxamide] | + (+ indicates binding activity up to 10%) |
| C=CC(=O)N1CC(N2Cc3ccc(-c4c(C)ccc5[nH]ncc45)nc3C2=O)C1 [Compound 87, 6-(1-acryloylazetidin-3-yl)-2-(5-methyl-1H-indazol-4-yl)-5,6-dihydro-7H-pyrrolo[3,4-b]pyridin-7-one] | + (+ indicates binding activity up to 10%) |
| C=CC(=O)N1CC(N2Cc3ccc(-c4nc(N)ncc4C)cc3C2=O)C1 [Compound 88, 2-(1-acryloylazetidin-3-yl)-6-(2-amino-5-methylpyrimidin-4-yl)isoindolin-1-one] | + (+ indicates binding activity up to 10%) |
| C=CC(=O)N1CC(N2Cc3c(C#N)cc(-c4c(C)ccc5[nH]ncc45)cc3C2=O)C1 [Compound 89, 2-(1-acryloylazetidin-3-yl)-6-(5-methyl-1H-indazol-4-yl)-1-oxoisoindoline-4-carbonitrile] | + (+ indicates binding activity up to 10%) |
| C=CC(=O)N1CC(N2Cc3ccc(-c4ccc(O)nc4)cc3C2=O)C1 [Compound 90, 2-(1-acryloylazetidin-3-yl)-6-(6-hydroxypyridin-3-yl)isoindolin-1-one] | + (+ indicates binding activity up to 10%) |
| C=CC(=O)N1CCC(N2Cc3c(C(N)=O)cc(-c4c(O)cccc4F)cc3C2=O)C1 (centres unmarked) [Compound 91, 2-(1-acryloylpyrrolidin-3-yl)-6-(2-fluoro-6-hydroxyphenyl)-1-oxoisoindoline-4-carboxamide] | + (+ indicates binding activity up to 10%) |
| C=CC(=O)N1CC(N2Cc3c(OC)cc(-c4c(C)ccc5[nH]ncc45)cc3C2=O)C1 [Compound 92, 2-(1-acryloylazetidin-3-yl)-4-methoxy-6-(5-methyl-1H-indazol-4-yl)isoindolin-1-one] | ++ (++ indicates binding activity from 10 to 50%) |

Source: patent publication US10377743B2, “Inhibitors of RAS and methods of use thereof” (Araxes Pharma LLC, priority 2016, dated 2019)
